Data reported in patent US20080119515A1, “Heterocyclic Kinase Inhibitors: Methods of Use and Synthesis” (priority 2003, published 2008).
pIC50: −log10 of the molar value.

Target: T1, ZAP-70 (Homo sapiens, UniProt P43403)
T1 sequence (P43403 1-619): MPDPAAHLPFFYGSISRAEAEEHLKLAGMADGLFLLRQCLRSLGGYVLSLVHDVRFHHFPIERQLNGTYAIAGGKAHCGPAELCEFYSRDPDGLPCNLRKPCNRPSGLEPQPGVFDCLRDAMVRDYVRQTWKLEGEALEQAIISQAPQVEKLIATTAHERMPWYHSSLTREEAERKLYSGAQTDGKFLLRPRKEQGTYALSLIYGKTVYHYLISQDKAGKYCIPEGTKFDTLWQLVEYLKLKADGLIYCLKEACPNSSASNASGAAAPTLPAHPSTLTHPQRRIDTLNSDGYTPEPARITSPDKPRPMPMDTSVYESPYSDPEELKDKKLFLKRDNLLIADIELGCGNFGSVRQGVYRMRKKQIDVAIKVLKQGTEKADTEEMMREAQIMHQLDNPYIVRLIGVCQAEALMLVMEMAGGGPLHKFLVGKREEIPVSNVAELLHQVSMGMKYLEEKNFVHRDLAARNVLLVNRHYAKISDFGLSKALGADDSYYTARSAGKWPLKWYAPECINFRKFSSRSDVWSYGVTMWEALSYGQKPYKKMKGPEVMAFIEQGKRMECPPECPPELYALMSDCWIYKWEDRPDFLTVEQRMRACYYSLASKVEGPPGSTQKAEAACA
Test: DELFIA assay (ZAP-70 kinase, phosphorylation of biotinylated poly(glu,tyr))
Assay type: biochemical
Conditions: ZAP-70 DELFIA, class symbols; read-out: Activity (IC50 in vitro)
Summary of the method: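 3.1 nM ZAP-70 pre-incubated 10 min at room temperature with compound ([…]) and 62.5 nM biotinylated poly(glu,tyr) in 62.5 mM Mops pH 7.0, 12.5 mM MgCl2, 12.5% glycerol, 6.25% DMSO (pre-incubation concentrations); ATP added from 5 mM stock, 30 min reaction, EDTA stop. Phosphorylation read by DELFIA europium anti-phosphotyrosine fluorescence (340/615).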

pIC50, < 5.00:
N#Cc1ccc(-c2ccc3nc(N[C@@H]4c5ccccc5C[C@@H]4O)cc(C(=O)N4CCC[C@H]4CN4CCCC4)c3c2)cc1 [Compound 209], N#Cc1ccc(-c2ccc3nc(N(Cc4ccccc4)Cc4ccccc4)cc(C(=O)N4CCC[C@H]4CN4CCCC4)c3c2)cc1 [Compound 210], CN(Cc1ccccc1Cl)c1cc(C(=O)N2CCC[C@H]2CN2CCCC2)c2cc(-c3ccc(C#N)cc3)ccc2n1 [Compound 211], N#Cc1ccc(-c2ccc3nc(N(CCO)Cc4ccccc4)cc(C(=O)N4CCC[C@H]4CN4CCCC4)c3c2)cc1 [Compound 212], N#Cc1ccc(-c2ccc3nc(N(CCCO)Cc4ccccc4)cc(C(=O)N4CCC[C@H]4CN4CCCC4)c3c2)cc1 [Compound 213], C[C@@H](Nc1cc(C(=O)N2CCC[C@H]2CN2CCCC2)c2cc(-c3ccc(C#N)cc3)ccc2n1)[C@@H](O)c1ccccc1 [Compound 214], N#Cc1ccc(-c2ccc3nc(N4CCc5[nH]c6c(F)cccc6c5C4)cc(C(=O)N4CCC[C@H]4CN4CCCC4)c3c2)cc1 [Compound 215], N#Cc1ccc(-c2ccc3nc(NCc4cccc5ccccc45)cc(C(=O)N4CCC[C@H]4CN4CCCC4)c3c2)cc1 [Compound 216], N#Cc1ccc(-c2ccc3nc(NCc4cccc(-c5ccccc5)c4)cc(C(=O)N4CCC[C@H]4CN4CCCC4)c3c2)cc1 [Compound 217], C[C@H](c1cccc2ccccc12)N(C)c1cc(C(=O)N2CCC[C@H]2CN2CCCC2)c2cc(-c3ccc(C#N)cc3)ccc2n1 [Compound 218], C[C@@H](c1cccc2ccccc12)N(C)c1cc(C(=O)N2CCC[C@H]2CN2CCCC2)c2cc(-c3ccc(C#N)cc3)ccc2n1 [Compound 219], N#Cc1ccc(-c2ccc3nc(NCCc4ccc(Cl)c(Cl)c4)cc(C(=O)N4CCC[C@H]4CN4CCCC4)c3c2)cc1 [Compound 220], C[C@H](Nc1cc(C(=O)N2CCC[C@H]2CN2CCCC2)c2cc(-c3ccc(C#N)cc3)ccc2n1)c1ccc(Br)cc1 [Compound 221], CC(Nc1cc(C(=O)N2CCC[C@H]2CN2CCCC2)c2cc(-c3ccc(C#N)cc3)ccc2n1)c1ccc(Br)cc1 (some centres unmarked) [Compound 222], CC(Nc1cc(C(=O)N2CCC[C@H]2CN2CCCC2)c2cc(-c3ccc(C#N)cc3)ccc2n1)c1ccc(F)cc1 (some centres unmarked) [Compound 223], Cc1ccc(CNc2cc(C(=O)N3CCC[C@H]3CN3CCCC3)c3cc(-c4ccc(C#N)cc4)ccc3n2)c(C)c1 [Compound 224], Cc1cc(CNc2cc(C(=O)N3CCC[C@H]3CN3CCCC3)c3cc(-c4ccc(C#N)cc4)ccc3n2)ccc1F [Compound 225], Cc1ccc(F)cc1CNc1cc(C(=O)N2CCC[C@H]2CN2CCCC2)c2cc(-c3ccc(C#N)cc3)ccc2n1 [Compound 226], Cc1ccc(CNc2cc(C(=O)N3CCC[C@H]3CN3CCCC3)c3cc(-c4ccc(C#N)cc4)ccc3n2)cc1F [Compound 227], CSc1ccccc1CNc1cc(C(=O)N2CCC[C@H]2CN2CCCC2)c2cc(-c3ccc(C#N)cc3)ccc2n1 [Compound 228], N#Cc1ccc(-c2ccc3nc(NCc4cccc(Cl)c4F)cc(C(=O)N4CCC[C@H]4CN4CCCC4)c3c2)cc1 [Compound 229], N#Cc1ccc(-c2ccc3nc(NCc4cc(Cl)ccc4F)cc(C(=O)N4CCC[C@H]4CN4CCCC4)c3c2)cc1 [Compound 230], N#Cc1ccc(-c2ccc3nc(NCc4csc5ccccc45)cc(C(=O)N4CCC[C@H]4CN4CCCC4)c3c2)cc1 [Compound 231], N#Cc1ccc(-c2ccc3nc(NCc4ccccc4OC(F)F)cc(C(=O)N4CCC[C@H]4CN4CCCC4)c3c2)cc1 [Compound 232], N#Cc1ccc(-c2ccc3nc(NCc4ccc(OC(F)F)cc4)cc(C(=O)N4CCC[C@H]4CN4CCCC4)c3c2)cc1 [Compound 233], N#Cc1ccc(-c2ccc3nc(NCc4ccc(-c5cccs5)cc4)cc(C(=O)N4CCC[C@H]4CN4CCCC4)c3c2)cc1 [Compound 234], N#Cc1ccc(-c2ccc3nc(NCc4ccccc4N4CCCCC4)cc(C(=O)N4CCC[C@H]4CN4CCCC4)c3c2)cc1 [Compound 235], N#Cc1ccc(-c2ccc3nc(NCc4ccccc4OC(F)(F)F)cc(C(=O)N4CCC[C@H]4CN4CCCC4)c3c2)cc1 [Compound 236], N#Cc1ccc(-c2ccc3nc(NCc4cccc(C(F)(F)F)c4F)cc(C(=O)N4CCC[C@H]4CN4CCCC4)c3c2)cc1 [Compound 237], N#Cc1ccc(-c2ccc3nc(NCc4cc(C(F)(F)F)ccc4F)cc(C(=O)N4CCC[C@H]4CN4CCCC4)c3c2)cc1 [Compound 238], N#Cc1ccc(-c2ccc3nc(NCc4ccc(F)cc4C(F)(F)F)cc(C(=O)N4CCC[C@H]4CN4CCCC4)c3c2)cc1 [Compound 239], N#Cc1ccc(-c2ccc3nc(NCc4ccc(C(F)(F)F)cc4F)cc(C(=O)N4CCC[C@H]4CN4CCCC4)c3c2)cc1 [Compound 240], N#Cc1ccc(-c2ccc3nc(NCc4cc(F)ccc4C(F)(F)F)cc(C(=O)N4CCC[C@H]4CN4CCCC4)c3c2)cc1 [Compound 241], N#Cc1ccc(-c2ccc3nc(NCc4csc5ccc(Cl)cc45)cc(C(=O)N4CCC[C@H]4CN4CCCC4)c3c2)cc1 [Compound 242], N#Cc1ccc(-c2ccc3nc(NCCc4ccc(Br)cc4)cc(C(=O)N4CCC[C@H]4CN4CCCC4)c3c2)cc1 [Compound 243], CCN(Cc1ccc(C)cc1)c1cc(C(=O)N2CCC[C@H]2CN2CCCC2)c2cc(-c3ccc(C#N)cc3)ccc2n1 [Compound 244], N#Cc1ccc(-c2ccc3nc(N4Cc5ccccc5C[C@H]4CO)cc(C(=O)N4CCC[C@H]4CN4CCCC4)c3c2)cc1 [Compound 245], CN(Cc1cccc2ccccc12)c1cc(C(=O)N2CCC[C@H]2CN2CCCC2)c2cc(-c3ccc(C#N)cc3)ccc2n1 [Compound 246], N#Cc1ccc(-c2ccc3nc(N(CCCCO)Cc4ccccc4)cc(C(=O)N4CCC[C@H]4CN4CCCC4)c3c2)cc1 [Compound 247], CN(Cc1ccc(Cl)c(Cl)c1)c1cc(C(=O)N2CCC[C@H]2CN2CCCC2)c2cc(-c3ccc(C#N)cc3)ccc2n1 [Compound 248], N#Cc1ccc(-c2ccc3nc(NNCc4ccccc4)cc(C(=O)N4CCC[C@H]4CN4CCCC4)c3c2)cc1 [Compound 249], N#Cc1ccc(-c2ccc3nc(NCc4ccc(F)cc4Cl)cc(C(=O)N4CCC[C@H]4CN4CCCC4)c3c2)cc1 [Compound 250], N#Cc1ccc(-c2ccc3nc(NCc4ccccc4-c4ccccc4)cc(C(=O)N4CCC[C@H]4CN4CCCC4)c3c2)cc1 [Compound 251], N#Cc1ccc(-c2ccc3nc(NCc4ccc(-c5ccccc5)cc4)cc(C(=O)N4CCC[C@H]4CN4CCCC4)c3c2)cc1 [Compound 252], N#Cc1ccc(-c2ccc3nc(N4CCCC4Cc4ccccc4)cc(C(=O)N4CCC[C@H]4CN4CCCC4)c3c2)cc1 (some centres unmarked) [Compound 253], N#Cc1ccc(-c2ccc3nc(N4CCC(c5ccccc5)C4)cc(C(=O)N4CCC[C@H]4CN4CCCC4)c3c2)cc1 (some centres unmarked) [Compound 254], N#Cc1ccc(-c2ccc3nc(N4CCOC(c5ccccc5)C4)cc(C(=O)N4CCC[C@H]4CN4CCCC4)c3c2)cc1 (some centres unmarked) [Compound 255], N#Cc1ccc(-c2ccc3nc(N4CCSC(c5ccccc5)C4)cc(C(=O)N4CCC[C@H]4CN4CCCC4)c3c2)cc1 (some centres unmarked) [Compound 256], N#Cc1ccc(-c2ccc3nc(N4CCCC4c4ccccc4)cc(C(=O)N4CCC[C@H]4CN4CCCC4)c3c2)cc1 (some centres unmarked) [Compound 257], N#Cc1ccc(-c2ccc3nc(N4CCC[C@@H]4c4ccccc4Cl)cc(C(=O)N4CCC[C@H]4CN4CCCC4)c3c2)cc1 [Compound 258], N#Cc1ccc(-c2ccc3nc(N4CCCC4c4ccc(Cl)cc4)cc(C(=O)N4CCC[C@H]4CN4CCCC4)c3c2)cc1 (some centres unmarked) [Compound 259], N#Cc1ccc(-c2ccc3nc(NCC4(c5ccc(Cl)cc5)CC4)cc(C(=O)N4CCC[C@H]4CN4CCCC4)c3c2)cc1 [Compound 260], N#Cc1ccc(-c2ccc3nc(N4CCC(c5ccc(Cl)cc5)C4)cc(C(=O)N4CCC[C@H]4CN4CCCC4)c3c2)cc1 (some centres unmarked) [Compound 261], N#Cc1ccc(-c2ccc3nc(N4CCC(c5ccccc5F)C4)cc(C(=O)N4CCC[C@H]4CN4CCCC4)c3c2)cc1 (some centres unmarked) [Compound 262], N#Cc1ccc(-c2ccc3nc(N4CCC(c5cccc(F)c5)C4)cc(C(=O)N4CCC[C@H]4CN4CCCC4)c3c2)cc1 (some centres unmarked) [Compound 263], N#Cc1ccc(-c2ccc3nc(N4CCC(c5ccc(F)cc5)C4)cc(C(=O)N4CCC[C@H]4CN4CCCC4)c3c2)cc1 (some centres unmarked) [Compound 264]
